Paper PMC12118337, “Development of a Peptide Inhibitor Targeting the C‐SH2 Domain of the SHP2 Phosphatase” (Chembiochem, 2025)
Where two headings read alike, the source gives them in different places. Non-standard residues stand in square brackets, D forms with d. Residues, ends and D or L forms follow the SMILES beside them. F2Pmp = N[C@@H](Cc1ccc(C(F)(F)P(=O)(O)O)cc1)C(=O)O; Pmp = N[C@@H](Cc1ccc(CP(=O)(O)O)cc1)C(=O)O; pY = N[C@@H](Cc1ccc(OP(=O)(O)O)cc1)C(=O)O

How the values were obtained:
Type in all cases: biochemical
full‐length SHP2 [1] = target: T1, full‐length SHP2 (Homo sapiens, UniProt Q06124); assay: DiFMUP phosphatase assay, peptide inhibition in the presence of ITIM-[dPEG4]2-ITSM activator; conditions: for inhibitory activity against SHP2, in words: DiFMUP, 0.5 nM FL SHP2 activated with 26 nM tandem peptide, compared to peptide 21
T1 construct: 1–525) proteins were prepared; His-SUMO3 (pETM11-SUMO3 vector) (N, cleaved yes); made in house; host or cells: E. coli BL21(DE3)
T1 sequence (Q06124 1-525): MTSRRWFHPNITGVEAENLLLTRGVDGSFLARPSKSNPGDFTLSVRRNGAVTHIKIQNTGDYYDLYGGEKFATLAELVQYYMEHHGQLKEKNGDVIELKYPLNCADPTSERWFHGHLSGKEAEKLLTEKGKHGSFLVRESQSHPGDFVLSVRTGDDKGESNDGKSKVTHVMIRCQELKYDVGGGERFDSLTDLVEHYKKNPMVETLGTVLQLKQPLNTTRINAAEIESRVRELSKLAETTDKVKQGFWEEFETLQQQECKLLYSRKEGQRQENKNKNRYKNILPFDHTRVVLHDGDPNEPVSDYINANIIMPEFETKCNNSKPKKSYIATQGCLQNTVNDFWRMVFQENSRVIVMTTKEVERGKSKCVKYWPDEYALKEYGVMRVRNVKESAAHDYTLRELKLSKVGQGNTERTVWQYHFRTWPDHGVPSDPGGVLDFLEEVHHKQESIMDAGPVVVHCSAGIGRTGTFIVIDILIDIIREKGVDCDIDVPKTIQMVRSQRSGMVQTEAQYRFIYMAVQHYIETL
Experimental: (§1) 6. DiFMUP phosphatase assays
SHP2 dephosphorylation of the fluorogenic substrate 6,8-difluoro-4-methylumbiliferyl phosphate (DiFMUP) was measured to evaluate the effect of acetylated peptides on SHP2 activity. Final concentrations of 0.5 nM full-length SHP2, 200 µM DiFMUP (Invitrogen) and 26 nM bisphosphorylated tandem ITIM-[dPEG4]2-ITSM (CASLO ApS) were used, unless stated otherwise, per well in 96-well plates (OptiPlate-96 F Black; PerkinElmer). For peptide activation assays, each well contained 60 µL of reaction buffer (50 mM HEPES pH 7.6, 150 mM NaCl, 1 mM EDTA, 0.05% Tween 20, freshly added 5 mM DTT), 10 µL of SHP2 and 20 µL of the test peptide (0.096 nM – 51.2 µM final concentration). For peptide inhibition assays in the presence of a SHP2 activator, each well contained 40 µL of reaction buffer (50 mM HEPES pH 7.6, 150 mM NaCl, 1 mM EDTA, 0.05% Tween 20, freshly added 5 mM DTT), 10 µL of SHP2 and 40 µL of previously mixed bisphosphorylated tandem ITIM-[dPEG4]2-ITSM activator and test peptide (0.096 nM – 51.2 µM or 0.376 nM – 200 µM final concentration). To obtain the maximal activity, 10 µL of SHP2 and 20 µL of bisphosphorylated tandem ITIM-[dPEG4]2-ITSM activator was added to 60 µL of buffer. Samples were incubated for 20 minutes at room temperature and then 10 µL of DiFMUP was added to each sample, to give a final volume of 100 µL per well. For background subtraction, 10 µL of DiFMUP was added to 80 µL of buffer. The fluorescence was immediately measured on a Synergy H1 Microplate Reader (BioTek) with the excitation and emission monitored at 358 nm and 452 nm, respectively, over 30 minutes. Data were analysed in Excel 2016 by subtracting background values from emission values and calculating the slope of the emission profiles. Data were then further analysed in GraphPad Prism 6 by either: 1) plotting the slope against the peptide concentration and fitting the data to a variable slope model of non-linear regression; or 2) normalising the data to the maximal activity (SHP2 in the presence of ITIM-[dPEG4]2-ITSM; set to 100% activity) to obtain the % activity, plotting the % activity against the peptide concentration and fitting the data to a variable slope model of non-linear regression to obtain the IC50 values. Data are from two or three independent experiments, each performed in […]

[2] = test system: full‐length SHP2 or isolated PTP domain; assay: EnzChek phosphate assay (peptide as substrate); conditions: 50 nM full-length SHP2 or PTP domain, peptide 25–800 µM, absorbance 360 nm, three independent experiments
Experimental: 7. EnzChek phosphate assays
The EnzChek Phosphate Assay Kit (Thermo Fisher Scientific), which measures the release of inorganic phosphate generated from an enzymatic reaction, was used to evaluate Ac-ITSM(pTyr) and acetylated peptide 21 as potential substrates of SHP2. A reaction mixture consisting of 43 µL of dH2O, 0.5 µL of 1 M DTT ([…]), 5 µL of 20X reaction buffer, 20 µL of 2-amino-6-mercapto-7-methylpurine riboside (MESG) solution, 1.5 µL of purine nucleoside phosphorylase (PNP) solution and 10 µL of 0.5 µM full-length SHP2 or PTP domain (50 nM final concentration) was added to each well in a 96-well plate (SpectraPlate-96 MB; PerkinElmer). Samples were incubated for 10 minutes at room temperature and then 20 µL of Ac-ITSM(pTyr) or peptide 21 (final concentrations: 800 µM, 400 µM, 200 µM, 100 µM, 25 µM) was added to give a final volume of 100 µL per well. The absorbance was immediately measured at 360 nm on a Synergy H1 Microplate Reader (BioTek).
Data were analysed in GraphPad Prism 6 by plotting the absorbance against the peptide concentration. Data are from three independent experiments, each performed in technical triplicates.

full‐length SHP2 [3] = target: T1, full‐length SHP2; assay: DiFMUP phosphatase assay, peptide activation (no activator); conditions: 0.5 nM full-length SHP2, no tandem activator, peptide 0.096 nM – 51.2 µM
Experimental: as §1
SHP2 dephosphorylation of the fluorogenic substrate 6,8-difluoro-4-methylumbiliferyl phosphate (DiFMUP) was measured to evaluate the effect of acetylated peptides on SHP2 activity. Final concentrations of 0.5 nM full-length SHP2, 200 µM DiFMUP (Invitrogen) and 26 nM bisphosphorylated tandem ITIM-[dPEG4]2-ITSM (CASLO ApS) were used, unless stated otherwise, per well in 96-well plates (OptiPlate-96 F Black; PerkinElmer). For peptide activation assays, each well contained 60 µL of reaction buffer (50 mM HEPES pH 7.6, 150 mM NaCl, 1 mM EDTA, 0.05% Tween 20, freshly added 5 mM DTT), 10 µL of SHP2 and 20 µL of the test peptide (0.096 nM – 51.2 µM final concentration). For peptide inhibition assays in the presence of a SHP2 activator, each well contained 40 µL of reaction buffer (50 mM HEPES pH 7.6, 150 mM NaCl, 1 mM EDTA, 0.05% Tween 20, freshly added 5 mM DTT), 10 µL of SHP2 and 40 µL of previously mixed bisphosphorylated tandem ITIM-[dPEG4]2-ITSM activator and test peptide (0.096 nM – 51.2 µM or 0.376 nM – 200 µM final concentration). […] The fluorescence was immediately measured on a Synergy H1 Microplate Reader (BioTek) with the excitation and emission monitored at 358 nm and 452 nm, respectively, over 30 minutes. Data were analysed in Excel 2016 by subtracting background values from emission values and calculating the slope of the emission profiles. […]

Row | SMILES | IC50 (full‐length SHP2 [1]; 0.5 nM full-length SHP2 activated with 26 nM bisphosphorylated ITIM-[dPEG4]2-ITSM, 200 µM DiFMUP, pH 7.6, 20 min pre-incubation at room temperature, two or three independent experiments in technical triplicates, read-out: IC50 ± SEM (DiFMUP activity assay)) [nM] | suitability as substrate of SHP2 (dephosphorylation) [2] | SHP2 phosphatase activity with peptide alone (activation) (full‐length SHP2 [3]) | IC50 (full‐length SHP2 [1]) [nM] | inhibitory activity against SHP2, in words (full‐length SHP2 [1]) | IC50 ± SEM (DiFMUP activity assay) (full‐length SHP2 [1]; 0.5 nM full-length SHP2 activated with 26 nM bisphosphorylated ITIM-[dPEG4]2-ITSM, 200 µM DiFMUP, pH 7.6, 20 min pre-incubation at room temperature, two or three independent experiments in technical triplicates)
1 | CC[C@H](C)[C@H](NC(=O)[C@@H](NC(=O)[C@H](C)NC(=O)[C@H](Cc1ccc(OP(=O)(O)O)cc1)NC(=O)[C@H](CCC(=O)O)NC(=O)[C@@H](NC(=O)[C@H](CCC(N)=O)NC(C)=O)[C@@H](C)O)[C@@H](C)O)C(=O)N[C@@H](CCCCN)C(=O)N[C@@H](Cc1c[nH]cn1)C(=O)N1CCC[C@H]1C(N)=O [peptide 21] (Ac-QTE[pY]ATIKHP-NH2) | 1050 ± 502 | not a good SHP2 substrate | activated SHP2 only minimally at the highest peptide concentration | – | – | –
2 | CC[C@H](C)[C@H](NC(=O)[C@@H](NC(=O)[C@H](C)NC(=O)[C@H](Cc1ccc(C(F)(F)P(=O)(O)O)cc1)NC(=O)[C@H](CCC(=O)O)NC(=O)[C@@H](NC(=O)[C@H](CCC(N)=O)NC(C)=O)[C@@H](C)O)[C@@H](C)O)C(=O)N[C@@H](CCCCN)C(=O)N[C@@H](Cc1c[nH]cn1)C(=O)N1CCC[C@H]1C(N)=O [peptide 22] (Ac-QTE[F2Pmp]ATIKHP-NH2) | – | – | – | > 51200 | loss of inhibitory activity | –
3 | CC[C@H](C)[C@H](NC(=O)[C@@H](NC(=O)[C@H](C)NC(=O)[C@H](Cc1ccc(CP(=O)(O)O)cc1)NC(=O)[C@H](CCC(=O)O)NC(=O)[C@@H](NC(=O)[C@H](CCC(N)=O)NC(C)=O)[C@@H](C)O)[C@@H](C)O)C(=O)N[C@@H](CCCCN)C(=O)N[C@@H](Cc1c[nH]cn1)C(=O)N1CCC[C@H]1C(N)=O [peptide 23] (Ac-QTE[Pmp]ATIKHP-NH2) | – | – | – | – | loss of inhibitory activity | No inhibition
